In patent publication US20170333591A9, “ABSORBENT ARTICLE COMPRISING MALODOR REDUCTION COMPOSITIONS” (The Procter & Gamble Company, priority 2014, published 2017):

test: Log of liquid dish neat product liquid-air partition coefficient; assay type: physicochemical; settings: not given

Structure (SMILES)	Comment Code: Log of liquid dish neat product liquid-air partition coefficient
CCC(=O)OC1CC2C3C=CCC3C1C2(C)C (stereo not shown) [Material 343]	K (Log of liquid dish neat product liquid-air partition coefficient greater than or equal to 7)
C/C=C1/CC2CC1C1CCC(=O)OC21 (stereo not shown) [Material 353]	K (Log of liquid dish neat product liquid-air partition coefficient greater than or equal to 7)
CCc1ccccc1CC(C)(C)C=O [Material 354]	K (Log of liquid dish neat product liquid-air partition coefficient greater than or equal to 7)
CCOC(=O)OC1CCCCC1C(C)(C)C (stereo not shown) [Material 355]	K (Log of liquid dish neat product liquid-air partition coefficient greater than or equal to 7)
CC(O)C(C)/C=C1\C[C@H]2C[C@@H]1[C@@H]1C=CC[C@H]21 (stereo partly shown) [Material 359]	K (Log of liquid dish neat product liquid-air partition coefficient greater than or equal to 7)
CC(=O)OC1CC2C3C=CCC3C1C2(C)C (stereo not shown) [Material 360]	K (Log of liquid dish neat product liquid-air partition coefficient greater than or equal to 7)
CCOC(=O)C=Cc1ccccc1 [Material 400]	K (Log of liquid dish neat product liquid-air partition coefficient greater than or equal to 7)
CC1CCOC(c2ccccc2)C1 (stereo not shown) [Material 420]	K (Log of liquid dish neat product liquid-air partition coefficient greater than or equal to 7)
C=CC(C)CCCC(C)(C)O (stereo not shown) [Material 437]	K (Log of liquid dish neat product liquid-air partition coefficient greater than or equal to 7)
CCCc1ccc(O)c(OC)c1 [Material 440]	K (Log of liquid dish neat product liquid-air partition coefficient greater than or equal to 7)
CC(=O)CCC1C(C)=CCCC1(C)C (stereo not shown) [Material 448]	K (Log of liquid dish neat product liquid-air partition coefficient greater than or equal to 7)
c1ccc(COCc2ccccc2)cc1 [Material 454]	K (Log of liquid dish neat product liquid-air partition coefficient greater than or equal to 7)

same assay, conditions: code letter within the Comment Code cell

Structure (SMILES)	Log of liquid dish neat product liquid-air partition coefficient (Comment Code K/L)
CCCCCCCC(=O)OCc1ccco1 [Material 336]	K (Log of liquid dish neat product liquid-air partition coefficient greater than or equal to 7)
CCCCCC(=O)OCc1ccco1 [Material 338]	K (Log of liquid dish neat product liquid-air partition coefficient greater than or equal to 7)
CCCCCCC(=O)OCc1ccco1 [Material 339]	K (Log of liquid dish neat product liquid-air partition coefficient greater than or equal to 7)
CCC(=O)OC1CC2C3C=CCC3C1C2(C)C (stereo not shown) [Material 343]	K (Log of liquid dish neat product liquid-air partition coefficient greater than or equal to 7)
CCOC(=O)C12CCCC1C1CCC2C1 (stereo not shown) [Material 344]	K (Log of liquid dish neat product liquid-air partition coefficient greater than or equal to 7)
CCOC(=O)C1CCC(C(=O)OCC)CC1 (stereo not shown) [Material 347]	K (Log of liquid dish neat product liquid-air partition coefficient greater than or equal to 7)
CC(C)CC1CC(C)(O)CCO1 (stereo not shown) [Material 350]	K (Log of liquid dish neat product liquid-air partition coefficient greater than or equal to 7)
C=CCCCCCCCCC#N [Material 352]	K (Log of liquid dish neat product liquid-air partition coefficient greater than or equal to 7)
C/C=C1/CC2CC1C1CCC(=O)OC21 (stereo not shown) [Material 353]	K (Log of liquid dish neat product liquid-air partition coefficient greater than or equal to 7)
CCc1ccccc1CC(C)(C)C=O [Material 356]	K (Log of liquid dish neat product liquid-air partition coefficient greater than or equal to 7)
CC(O)C(C)/C=C1\C[C@H]2C[C@@H]1[C@@H]1C=CC[C@H]21 (stereo partly shown) [Material 359]	K (Log of liquid dish neat product liquid-air partition coefficient greater than or equal to 7)
CC(=O)OC1CC2C3C=CCC3C1C2(C)C (stereo not shown) [Material 360]	K (Log of liquid dish neat product liquid-air partition coefficient greater than or equal to 7)
CCc1ccc(CC(C)(C)C#N)cc1 [Material 361]	K (Log of liquid dish neat product liquid-air partition coefficient greater than or equal to 7)
CCOC(C)OC1CCCCCCCCCCC1 (stereo not shown) [Material 363]	K (Log of liquid dish neat product liquid-air partition coefficient greater than or equal to 7)
CC(=O)OCC=C(C)CCC=C(C)CCC=C(C)C [Material 368]	K (Log of liquid dish neat product liquid-air partition coefficient greater than or equal to 7)
CC(C)=CCCC(C)=CCCC(C)=CCO [Material 369]	K (Log of liquid dish neat product liquid-air partition coefficient greater than or equal to 7)
O=C1CCCCCCCCCCCCCCO1 [Material 370]	K (Log of liquid dish neat product liquid-air partition coefficient greater than or equal to 7)
O=C1CCC=CCCCCCCCCCC1 [Material 371]	K (Log of liquid dish neat product liquid-air partition coefficient greater than or equal to 7)
O=C1CCC=CCCCCCCCCCC1 [Material 372]	K (Log of liquid dish neat product liquid-air partition coefficient greater than or equal to 7)
C=CCc1ccc(OC(C)=O)c(OC)c1 [Material 374]	K (Log of liquid dish neat product liquid-air partition coefficient greater than or equal to 7)
C=CCc1ccc(O)c(OC)c1 [Material 375]	K (Log of liquid dish neat product liquid-air partition coefficient greater than or equal to 7)
CCOC(=O)C1OC1(C)c1ccccc1 (stereo not shown) [Material 377]	K (Log of liquid dish neat product liquid-air partition coefficient greater than or equal to 7)

Structure (SMILES)	Log of liquid dish neat product liquid-air partition coefficient (Comment Code K/L)
C=CCCCCCCCCC(=O)OCC [Material 381]	K (Log of liquid dish neat product liquid-air partition coefficient greater than or equal to 7)
CCCCCCCCCCCCCC(=O)OCC [Material 388]	K (Log of liquid dish neat product liquid-air partition coefficient greater than or equal to 7)
C=CC(O)(CC)CCC=C(C)C (stereo not shown) [Material 390]	K (Log of liquid dish neat product liquid-air partition coefficient greater than or equal to 7)
CCCCCCCCCCCC(=O)OCC [Material 391]	K (Log of liquid dish neat product liquid-air partition coefficient greater than or equal to 7)
CCCCCCCCCC(=O)OCC [Material 397]	K (Log of liquid dish neat product liquid-air partition coefficient greater than or equal to 7)
CCC1=CCCC(C)(C)C12C=CC(C)O2 (stereo not shown) [Material 413]	K (Log of liquid dish neat product liquid-air partition coefficient greater than or equal to 7)
C=CC1(C)CCC(C(C)(C)O)CC1C(=C)C (stereo not shown) [Material 414]	K (Log of liquid dish neat product liquid-air partition coefficient greater than or equal to 7)
CCOC(C)OCCc1ccccc1 (stereo not shown) [Material 415]	K (Log of liquid dish neat product liquid-air partition coefficient greater than or equal to 7)
CC1=CCC(C=CC(C)C(C)O)C1(C)C (stereo not shown) [Material 416]	K (Log of liquid dish neat product liquid-air partition coefficient greater than or equal to 7)
O=CCCC=C1CC2CC1C1CCCC21 (stereo not shown) [Material 418]	K (Log of liquid dish neat product liquid-air partition coefficient greater than or equal to 7)
CCCCCCCCCCCC(OC)OC [Material 421]	K (Log of liquid dish neat product liquid-air partition coefficient greater than or equal to 7)
c1ccc(Oc2ccccc2)cc1 [Material 428]	K (Log of liquid dish neat product liquid-air partition coefficient greater than or equal to 7)
c1ccc(Cc2ccccc2)cc1 [Material 429]	K (Log of liquid dish neat product liquid-air partition coefficient greater than or equal to 7)
CCCC(=O)OC(C)(C)Cc1ccccc1 [Material 432]	K (Log of liquid dish neat product liquid-air partition coefficient greater than or equal to 7)
C=C(C)C1CCC(C)C(OC(C)=O)C1 (stereo not shown) [Material 444]	K (Log of liquid dish neat product liquid-air partition coefficient greater than or equal to 7)
CCCCCCC1C(=O)CCC1C(=O)OC (stereo not shown) [Material 450]	K (Log of liquid dish neat product liquid-air partition coefficient greater than or equal to 7)
c1ccc(CCc2ccccc2)cc1 [Material 457]	K (Log of liquid dish neat product liquid-air partition coefficient greater than or equal to 7)
C=CC1(C)CCC(C(C)C)=CC1C(=C)C (stereo not shown) [Material 461]	K (Log of liquid dish neat product liquid-air partition coefficient greater than or equal to 7)
CCCCCCCC1CCCC(=O)O1 (stereo not shown) [Material 463]	K (Log of liquid dish neat product liquid-air partition coefficient greater than or equal to 7)
CC=CC(=O)C1C(C)C=CCC1(C)C (stereo not shown) [Material 466]	K (Log of liquid dish neat product liquid-air partition coefficient greater than or equal to 7)
C=CCCCCCCCCO [Material 470]	K (Log of liquid dish neat product liquid-air partition coefficient greater than or equal to 7)
